# Results published in patent US7902218B2, “Substituted tetrahydroisoquinolines as β-secretase inhibitors” (Bristol-Myers Squibb Company, priority 2006, dated 2011).
# Read-outs that look alike come from different tables or passages of the source.
# Biological target: T1, BACE1 enzyme (Homo sapiens, UniProt P56817)
# T1 construct: which overexpresses the BACE1 enzyme, was derived from HEK293 cells; endogenous in cells; washed 48,000 x g pellet of the cell homogenate
# Experiment: Radioligand displacement assay with a radiolabeled BACE inhibitor, HEK293-9B.A1 cell homogenate
# Type: binding
# Excerpt: There are a number of methods by which inhibitors of the BACE enzyme can be identified experimentally. The enzyme can be obtained from membrane samples from natural tissues or cultured cells or can be expressed recombinantly in a host cell by well known methods of molecular biology. […] The enzymatic activity and/or ligand binding capability of the enzyme can be assessed within these membrane samples, or the enzyme can be purified to varying extents. As an illustrative example, the nucleic acid sequence encoding the pro and catalytic domains of human BACE can be appended on the 5′ end with an untranslated and signal sequence from the gene for acetylcholinesterase, and on the 3′ end with a sequence encoding a poly-histidine tag. This cDNA can then be expressed in Drosophila melanogaster S2 cells in which the signal and pro sequences of the transcribed/translated protein are removed by cellular proteases and the catalytic domain, appended by a C-terminal poly-histidine tag, is secreted out into the cellular medium. The enzyme can then be purified from the culture medium by nickel affinity chromatography by methods well known to those trained in the art [Mallender, W. et al., “Characterization of recombinant, soluble beta-secretase from an insect cell expression system.” Mol. Pharmacol. 2001, 59: 619-626]. Similar strategies for expressing and purifying various forms of BACE in bacterial, mammalian and other cell types would be known to one skilled in the art.
# Radioligand displacement assays with a radiolabeled BACE inhibitor (WO 2004 013098, compound 3, where the methoxy group is substituted for C(^3H)3) were carried out using standard methods (Keen, M. (1999) in Receptor Binding Techniques (Walker, J. M. ed) p. 106 Humana Press, Totowa, N.J.). The HEK293-9B.A1 cell line, which overexpresses the BACE1 enzyme, was derived from HEK293 cells (Simmons, N. L. (1990) A cultured human renal epithelioid cell line responsive to vasoactive intestinal peptide. Exp. Physiol. 75:309-19.) by RAGE™ (Harrington, J. J. et al. (2001) Creation of genome-wide protein expression libraries using random activation of gene expression. Nat. Biotechnol. 19:440-5.; U.S. Pat. Nos. 6,410,266 and 6,361,972). T225 flask cultures of HEK293-9B.A1 were grown to 80% confluency in DMEM supplemented with 2 mM L-glutamine, 10 μg/ml penecillin, 10 μg/ml streptomycin, 3 μg/ml puromycin, 100 nM methotrexate, and 10% fetal bovine serum (Invitrogen, Carlsbad, Calif.), harvested, and resuspended at 2×10^8 cells per 10 ml of lysis buffer consisting of 50 mM HEPES pH 7.0 containing a protease inhibitor cocktail of AEBSF 104 μM, aprotinin 80 nM, leupeptin 2 μM, bestatin 4 μM, pepstatin A 1.5 μM, and E-64 1.4 μM (0.1% of protease inhibitor cocktail P8340, Sigma-Aldrich, St. Louis, Mo.) at 4° C. The resuspended cells were homogenized using a Polytron (Brinkman, Westbury, N.Y.) at setting 6 for 10 sec., then centrifuged at 48,000×g for 10 min. The resulting pellet was washed by repeating the resuspension, homogenization and centrifugation steps. The final pellet was resuspended in buffer at 4° C. to yield a total protein concentration of 5 mg/ml, then aliquots were frozen in liquid nitrogen for further storage at −70° C. Immediately before carrying out a binding assay, an aliquot of cell homogenate was thawed and diluted to a concentration of 100 μg/ml in assay buffer consisting of 50 mM HEPES pH 5.0 and 0.1% CHAPSO. Assays were initiated in polypropylene 96-well plates (Costar, Cambridge, Mass.) by the addition of 200 μl of cell homogenate to 50 μl of assay buffer containing 1 nM radioligand (WO 2004 013098, compound 3, where the methoxy group is substituted for C(^3H)3: 80 Ci/mMol) and various concentrations of unlabelled compounds, and incubated for 1.5 hr. at 25° C. Separation of bound from free radioligand was by filtration on GFF glass fiber filters (Innotech Biosystems International, Lansing, Mich.) using an Innotech cell harvester.
# [1] = displacement of 1 nM tritiated radioligand, HEK293-9B.A1 homogenate, pH 5.0, 1.5 hr at 25° C., read-out: Activity Rating (Activity based on IC50 values)
# T1 sequence (P56817 46-501): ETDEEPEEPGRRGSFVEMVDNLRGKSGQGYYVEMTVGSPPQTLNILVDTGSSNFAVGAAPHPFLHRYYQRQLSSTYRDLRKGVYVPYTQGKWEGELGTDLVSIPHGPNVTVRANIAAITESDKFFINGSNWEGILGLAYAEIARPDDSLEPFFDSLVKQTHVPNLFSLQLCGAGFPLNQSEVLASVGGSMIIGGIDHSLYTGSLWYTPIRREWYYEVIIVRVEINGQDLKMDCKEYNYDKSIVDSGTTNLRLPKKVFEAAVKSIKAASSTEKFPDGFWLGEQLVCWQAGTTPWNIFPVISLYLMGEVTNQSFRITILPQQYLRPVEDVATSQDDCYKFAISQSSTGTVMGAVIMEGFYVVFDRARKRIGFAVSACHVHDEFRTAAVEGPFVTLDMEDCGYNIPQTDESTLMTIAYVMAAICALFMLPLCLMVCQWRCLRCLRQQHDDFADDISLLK
compound,measurement,setting,value
CCCC[C@H]1CCN([C@@H](CCc2ccccc2)C(=O)N[C@@H](Cc2cc(F)cc(F)c2)[C@H](O)[C@H]2Cc3ccccc3CN2)C1=O [Example 4],IC50,[1],> 1000 nM
"CCCOc1cccc2c1CN[C@@H]([C@@H](O)[C@H](Cc1cc(F)cc(F)c1)NC(=O)[C@H](CCc1ccccc1)N1CC[C@](NC(C)=O)([C@H](C)CC)C1=O)C2 [Example 3, (S)-2-((S)-3-Acetamido-3-((R)-sec-butyl)-2-oxopyrrolidin-1-yl)-N-((1R,2S)-3-(3,5-difluorophenyl)-1-hydroxy-1-((R)-8-propoxy-1,2,3,4-tetrahydroisoquinolin-3-yl)propan-2-yl)-4-phenylbutanamide]",IC50,[1],< 10 nM
"CCC(C)[C@@]1(NC(C)=O)CCN([C@@H](CCc2ccccc2)C(=O)N[C@@H](Cc2cc(F)cc(F)c2)[C@H](O)[C@H]2Cc3ccccc3CN2)C1=O (stereo in doubt) [Example 1, (S)-2-((S)-3-Acetamido-3-((R)-sec-butyl)-2-oxopyrrolidin-1-yl)-N-((1R,2S)-3-(3,5-difluorophenyl)-1-hydroxy-1-((R)-1,2,3,4-tetrahydroisoquinolin-3-yl)propan-2-yl)-4-phenylbutanamide]",IC50,[1],< 10 nM
"CCCC[C@H]1CCN([C@@H](C)C(=O)N[C@@H](Cc2cc(F)cc(F)c2)[C@H](O)[C@H]2Cc3ccccc3CN2)C1=O [Example 5, (S)-2-((S)-3-Butyl-2-oxopyrrolidin-1-yl)-N-((1R,2S)-3-(3,5-difluorophenyl)-1-hydroxy-1-((R)-1,2,3,4-tetrahydroisoquinolin-3-yl)propan-2-yl)propanamide]",IC50,[1],> 1000 nM
"CCCCN(C)C(=O)n1cc(C(=O)N[C@@H](Cc2cc(F)cc(F)c2)[C@H](O)C2Cc3ccccc3CN2)c2cccnc21 (stereo partly drawn) [Example 8, N^1-Butyl-N^3-((1R,2S)-3-(3,5-difluorophenyl)-1-hydroxy-1-(1,2,3,4-tetrahydroisoquinolin-3-yl)propan-2-yl)-N^1-methyl-1H-pyrrolo[2,3-b]pyridine-1,3-dicarboxamide]",IC50,,> 1000 nM
"CCC(C)[C@@]1(NC(C)=O)CCN([C@@H](CCc2ccccc2)C(=O)N[C@@H](Cc2cc(F)cc(F)c2)[C@H](O)[C@@H]2Cc3ccccc3CN2)C1=O (stereo in doubt) [Example 2, (S)-2-((S)-3-Acetamido-3-((R)-sec-butyl)-2-oxopyrrolidin-1-yl)-N-((1R,2S)-3-(3,5-difluorophenyl)-1-hydroxy-1-((S)-1,2,3,4-tetrahydroisoquinolin-3-yl)propan-2-yl)-4-phenylbutanamide]",IC50,[1],10 to 1000 nM
"CCC(C)[C@@]1(NC(C)=O)CCN([C@@H](CCc2ccccc2)C(=O)N[C@@H](Cc2cc(F)cc(F)c2)[C@H](O)C2Cc3cccc(OC)c3CN2)C1=O (stereo partly drawn) [Example 7, (2S)-2-((S)-3-Acetamido-3-sec-butyl-2-oxopyrrolidin-1-yl)-N-((1R,2S)-3-(3,5-difluorophenyl)-1-hydroxy-1-(8-methoxy-1,2,3,4-tetrahydroisoquinolin-3-yl)propan-2-yl)-4-phenylbutanamide]",IC50,[1],< 10 nM
"CC(=O)N[C@]1(CC(C)C)CCN([C@@H](CCc2ccccc2)C(=O)N[C@@H](Cc2cc(F)cc(F)c2)[C@H](O)[C@H]2Cc3ccccc3CN2)C1=O [Example 6, (S)-2-((R)-3-Acetamido-3-isobutyl-2-oxopyrrolidin-1-yl)-N-((1R,2S)-3-(3,5-difluorophenyl)-1-hydroxy-1-((R)-1,2,3,4-tetrahydroisoquinolin-3-yl)propan-2-yl)-4-phenylbutanamide]",IC50,[1],< 10 nM
